Measured values as given in patent publication US8283465B2, “Triazolopyridine compound, and action thereof as prolyl hydroxylase inhibitor or erythropoietin production-inducing agent” (Japan Tobacco Inc., priority 2009, dated 2012).
Structures can show the parent of a compound that is named as a salt.

What was measured:
human PHD2 = molecular target: T1, human PHD2 (Homo sapiens, UniProt Q9GZT9); experiment: Measurement of human PHD inhibitory activity (TR-FRET, hydroxylation of HIF-1α partial peptide); assay type: biochemical; details: human PHD2 enzyme 1 nM, 25° C. 30 min, values consisting solely of numbers; read-out: IC50 (μM) in vitro, human PHD inhibitory activity
T1 construct: made in house; host or cells: Sf9 insect cells (baculovirus, pVL1393 vector)
T1 sequence (Q9GZT9 whole entry): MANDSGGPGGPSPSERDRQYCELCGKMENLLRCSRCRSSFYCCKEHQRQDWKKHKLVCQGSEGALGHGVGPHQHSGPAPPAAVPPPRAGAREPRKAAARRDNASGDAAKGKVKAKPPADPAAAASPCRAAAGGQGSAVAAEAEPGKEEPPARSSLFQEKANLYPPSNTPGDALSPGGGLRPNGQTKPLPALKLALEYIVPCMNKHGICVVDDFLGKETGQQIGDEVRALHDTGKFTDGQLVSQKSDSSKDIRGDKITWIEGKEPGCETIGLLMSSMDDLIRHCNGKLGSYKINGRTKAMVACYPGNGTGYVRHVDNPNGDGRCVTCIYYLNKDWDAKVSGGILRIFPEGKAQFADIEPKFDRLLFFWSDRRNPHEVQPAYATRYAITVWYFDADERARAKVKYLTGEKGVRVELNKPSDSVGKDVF
Outline: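 FLAG-tagged human PHD2 from Sf9 cells (1 nM final) hydroxylates a biotinylated 19-residue HIF-1α peptide, 30 min at 25° C. After EDTA stop, hydroxyproline detected by TR-FRET using Eu/Xlent-labelled VBC complex; % inhibition relative to no-enzyme and no-compound wells.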

[1] = system: human EPO production, Hep3B cells; experiment: Human EPO production activity in Hep3B cells (EPO-ELISA of culture supernatant); assay type: cell-based; details: for EC50: Homo sapiens, 24 hr incubation, values consisting solely of numbers, read-out: EC50 (μM) in vitro, human EPO production activity; for production activity (%) at 30 μM in vitro, human EPO: 24 hr, values containing %, relative to maximum production
Outline: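 Hep3B cells were dosed with compound 24 h after plating and incubated 24 h at 37° C. Secreted EPO in supernatant was measured by ELISA. Values are EC50, or activity (%) at 30 μM scaled between untreated and maximum production.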

SMILES | IC50 (human PHD2) [µM] | EC50 [1] [µM] | production activity (%) at 30 μM in vitro, human EPO [1] [%]
O=C(O)CNC(=O)c1c(O)cc(-c2cc(F)ccc2F)n2ncnc12 [Example 75, {[5-(2,5-difluorophenyl)-7-hydroxy[1,2,4]triazolo[1,5-a]pyridine-8-carbonyl]amino} acetic acid hydrochloride] | 0.21 | 23.7 | –
O=C(O)CNC(=O)c1c(O)cc(-c2ccc(Cl)c(F)c2)n2ncnc12 [Example 78, {[5-(4-chloro-3-fluorophenyl)-7-hydroxy[1,2,4]triazolo[1,5-a]pyridine-8-carbonyl]amino} acetic acid hydrochloride] | 0.15 | 6.6 | –
O=C(O)CNC(=O)c1c(O)c(Cl)c(CCc2ccccc2)n2ncnc12 [Example 80, [(6-chloro-7-hydroxy-5-phenethyl[1,2,4]triazolo[1,5-a]pyridine-8-carbonyl)amino] acetic acid hydrochloride] | 0.71 | 23.3 | –
O=C(O)CNC(=O)c1c(O)cc(-c2ccc(C3CC3)cc2F)n2ncnc12 [Example 82, {[5-(4-cyclopropyl-2-fluorophenyl)-7-hydroxy[1,2,4]triazolo[1,5-a]pyridine-8-carbonyl]amino} acetic acid hydrochloride] | 0.15 | 5.4 | –
O=C(O)CNC(=O)c1c(O)cc(-c2cc(F)cc(F)c2)c2ncnn12 [Example 85, {[8-(3,5-difluorophenyl)-6-hydroxy[1,2,4]triazolo[1,5-a]pyridine-5-carbonyl]amino} acetic acid hydrochloride] | 0.16 | 20.6 | –
Cl.O=C(O)CNC(=O)c1c(O)cc(Cc2ccccc2)c2ncnn12 [Example 86, [(8-benzyl-6-hydroxy[1,2,4]triazolo[1,5-a]pyridine-5-carbonyl)amino] acetic acid hydrochloride] | 0.83 | – | 6
O=C(O)CNC(=O)c1c(O)cc(CCc2ccc(F)cc2)c2ncnn12 [Example 90, ({8-[2-(4-fluorophenyl)-ethyl]-6-hydroxy[1,2,4]triazolo[1,5-a]pyridine-5-carbonyl}amino) acetic acid hydrochloride] | 0.29 | 16.6 | –
Cl.O=C(O)CNC(=O)c1c(O)cc(CC2CCCCC2)c2ncnn12 [Example 91, [(8-cyclohexylmethyl-6-hydroxy[1,2,4]triazolo[1,5-a]pyridine-5-carbonyl)amino] acetic acid hydrochloride] | 1.53 | – | 43
O=C(O)CNC(=O)c1c(O)cc(-c2ccc(F)c(Cl)c2)c2ncnn12 [Example 94, {[8-(3-chloro-4-fluorophenyl)-6-hydroxy[1,2,4]triazolo[1,5-a]pyridine-5-carbonyl]amino} acetic acid hydrochloride] | 0.11 | 9.7 | –
O=C(O)CNC(=O)c1c(O)cc(-c2ccc(Cl)c(Cl)c2)c2ncnn12 [Example 95, {[8-(3,4-dichlorophenyl)-6-hydroxy[1,2,4]triazolo[1,5-a]pyridine-5-carbonyl]amino} acetic acid hydrochloride] | 0.12 | 4.3 | –
O=C(O)CNC(=O)c1c(O)cc(CCC2CCCCC2)c2ncnn12 [Example 98, {[8-(2-cyclohexylethyl)-6-hydroxy[1,2,4]triazolo[1,5-a]pyridine-5-carbonyl]amino} acetic acid hydrochloride] | 1.13 | 25.6 | –
O=C(O)CNC(=O)c1c(O)cc(CCC2CCCC2)c2ncnn12 [Example 99, {[8-(2-cyclopentylethyl)-6-hydroxy[1,2,4]triazolo[1,5-a]pyridine-5-carbonyl]amino} acetic acid hydrochloride] | 0.87 | 20.2 | –
O=C(O)CNC(=O)c1c(O)cc(CCc2ccccc2C(F)(F)F)c2ncnn12 [Example 100, ({6-hydroxy-8-[2-(2-trifluoromethyl phenyl)ethyl][1,2,4]triazolo[1,5-a]pyridine-5-carbonyl}amino) acetic acid hydrochloride] | 0.82 | 18 | –
Cl.O=C(O)CNC(=O)c1c(O)cc(CCc2cccc(C(F)(F)F)c2)c2ncnn12 [Example 101, ({6-hydroxy-8-[2-(3-trifluoromethyl phenyl)ethyl] [1,2,4]triazolo[1,5-a]pyridine-5-carbonyl}amino) acetic acid hydrochloride] | 0.37 | – | 6
O=C(O)CNC(=O)c1c(O)cc(CCc2ccc(C(F)(F)F)cc2)c2ncnn12 [Example 102, ({6-hydroxy-8-[2-(4-trifluoromethyl phenyl)ethyl] [1,2,4]triazolo[1,5-a]pyridine-5-carbonyl}amino) acetic acid hydrochloride] | 0.51 | 16 | –
O=C(O)CNC(=O)c1c(O)cc(-c2cc(F)cc(C(F)(F)F)c2)c2ncnn12 [Example 104, {[8-(3-fluoro-5-trifluoromethyl-phenyl)-6-hydroxy[1,2,4]triazolo[1,5-a]pyridine-5-carbonyl]amino} acetic acid hydrochloride] | 0.19 | 6.3 | –
O=C(O)CNC(=O)c1c(O)cc(-c2cc(F)cc(Cl)c2)c2ncnn12 [Example 105, {[8-(3-chloro-5-fluorophenyl)-6-hydroxy[1,2,4]triazolo[1,5-a]pyridine-5-carbonyl]amino} acetic acid hydrochloride] | 0.1 | 5.9 | –
O=C(O)CNC(=O)c1c(O)cc(-c2ccc(F)c(C(F)(F)F)c2)c2ncnn12 [Example 106, {[8-(4-fluoro-3-trifluoromethyl-phenyl)-6-hydroxy[1,2,4]triazolo[1,5-a]pyridine-5-carbonyl]amino} acetic acid hydrochloride] | 0.23 | 6 | –
O=C(O)CNC(=O)c1c(O)cc(-c2ccc(Cl)cc2)c2ncnn12 [Example 108, {[8-(4-chlorophenyl)-6-hydroxy[1,2,4]triazolo[1,5-a]pyridine-5-carbonyl]amino} acetic acid] | 0.16 | 8.9 | –

Now from value to compound, other results behind:

IC50 (human PHD2) [µM] | EC50 [1] [µM] | SMILES | production activity (%) at 30 μM in vitro, human EPO [1] [%]
0.22 | 18 | O=C(O)CNC(=O)c1c(O)cc(-c2cc(F)cc(F)c2F)n2ncnc12 [Example 76, {[7-hydroxy-5-(2,3,5-trifluorophenyl) [1,2,4]triazolo[1,5-a]pyridine-8-carbonyl]amino} acetic acid hydrochloride] | –
0.24 | 18.7 | O=C(O)CNC(=O)c1c(O)cc(-c2ccc(F)cc2F)n2ncnc12 [Example 77, {[5-(2,4-difluorophenyl)-7-hydroxy[1,2,4]triazolo[1,5-a]pyridine-8-carbonyl]amino} acetic acid hydrochloride] | –
0.23 | 7.8 | Cc1cc(F)cc(-c2cc(O)c(C(=O)NCC(=O)O)c3ncnn23)c1 [Example 79, {[5-(3-fluoro-5-methylphenyl)-7-hydroxy[1,2,4]triazolo[1,5-a]pyridine-8-carbonyl]amino} acetic acid hydrochloride] | –
6.09 | – | CCCc1c(Cl)c(O)c(C(=O)NCC(=O)O)c2ncnn12.Cl [Example 81, [(6-chloro-7-hydroxy-5-propyl[1,2,4]triazolo[1,5-a]pyridine-8-carbonyl)amino] acetic acid hydrochloride] | 33
0.16 | – | O=C(O)CNC(=O)c1c(O)cc(-c2ccccc2Cl)c2ncnn12 [Example 88, {[8-(2-chlorophenyl)-6-hydroxy[1,2,4]triazolo[1,5-a]pyridine-5-carbonyl]amino} acetic acid] | 14
0.12 | 4.2 | O=C(O)CNC(=O)c1c(O)cc(-c2cc(Cl)cc(Cl)c2)c2ncnn12 [Example 89, {[8-(3,5-dichlorophenyl)-6-hydroxy[1,2,4]triazolo[1,5-a]pyridine-5-carbonyl]amino} acetic acid hydrochloride] | –
0.51 | 16 | O=C(O)CNC(=O)c1c(O)cc(C2=CCCCC2)c2ncnn12 [Example 93, [(8-cyclohex-1-enyl-6-hydroxy[1,2,4]triazolo[1,5-a]pyridine-5-carbonyl)amino] acetic acid hydrochloride] | –
0.29 | 5.9 | O=C(O)CNC(=O)c1c(O)cc(-c2ccc(Cl)s2)c2ncnn12 [Example 96, {[8-(5-chlorothiophen-2-yl)-6-hydroxy[1,2,4]triazolo[1,5-a]pyridine-5-carbonyl]amino} acetic acid hydrochloride] | –
0.13 | 3.5 | O=C(O)CNC(=O)c1c(O)cc(-c2cc(C(F)(F)F)cc(C(F)(F)F)c2)c2ncnn12 [Example 97, {[8-(3,5-bis-trifluoromethyl-phenyl)-6-hydroxy[1,2,4]triazolo[1,5-a]pyridine-5-carbonyl]amino} acetic acid hydrochloride] | –
0.18 | 6.9 | O=C(O)CNC(=O)c1c(O)cc(-c2cc(Cl)cc(C3CC3)c2)c2ncnn12 [Example 103, {[8-(3-chloro-5-cyclopropylphenyl)-6-hydroxy[1,2,4]triazolo[1,5-a]pyridine-5-carbonyl]amino} acetic acid hydrochloride] | –
0.17 | 13.7 | O=C(O)CNC(=O)c1c(O)cc(CCc2cc(F)cc(F)c2)c2ncnn12 [Example 109, ({8-[2-(3,5-difluoro-phenyl)-ethyl]-6-hydroxy[1,2,4]triazolo[1,5-a]pyridine-5-carbonyl}amino) acetic acid hydrochloride] | –
